The results in this text go back to ChEMBL document CHEMBL1142513, “Efficient solid-phase synthesis of FK228 analogues as potent antitumoral agents” (J Med Chem, 2008).

For assay [1], the system named is T-24. The assay is described as follows: Growth inhibition of human T24 cells at 0.5 uM after 3 days by MTT assay. Type of assay: functional. Particulars: T-24, 72 h, read-out: GI.
Assay [2] has as its system T-24. The assay is described as follows: Antitumor activity against human T24 cells after 3 days by MTT assay. As to conditions: T-24, 72 h. The format is functional, cell-based. A general note: Formazan colour is commonly taken as a measure of viable cells.
In assay [3] the test system is T-24. The assay is described as follows: Growth inhibition of human T24 cells at 5 uM after 3 days by MTT assay. Type of assay: functional. Particulars: T-24, 72 h, read-out: GI.
The test system of the next assay is DU-145. The assay is described as follows: Antitumor activity against human DU145 cells after 3 days by MTT assay. The format is functional, cell-based. Particulars: DU-145, 72 h.
Assay [4] in a line: Antitumor activity against human 253J cells after 3 days by MTT assay. Particulars: 72 h. The format is functional, cell-based.
In a further assay the test system is LNCaP. The assay is described as follows: Antitumor activity against human LNCAP cells after 3 days by MTT assay. Particulars: 72 h. The format is functional, cell-based.
In a further assay the test system is TCC-SUP. The assay is described as follows: Antitumor activity against human TCC-SUP cells after 3 days by MTT assay. The format is functional, cell-based. Particulars: 72 h.
Another assay concerns PC-3. The assay is described as follows: Antitumor activity against human PC-3 cells after 3 days by MTT assay. The format is functional, cell-based. Particulars: PC-3, 72 h.

pIC50: −log10 of the molar value.

As for `CC(C)[C@H]1NC(=O)C[C@@H]2NC(=O)[C@H](Cc3cccc4ccccc34)NC(=O)[C@H](Cc3cccc4ccccc34)NC(=O)[C@H](CSSCCNC2=O)NC1=O`, the inhibition of growth at 0.5 µM with T-24 [1] was determined as 70%. For the same molecule, in the assay with T-24 [2], the pIC50 is 7.22. For the same molecule, in the assay on T-24 [3], the inhibition of growth at 5 µM is above 95%.
Take `CC(C)[C@H]1NC(=O)C[C@@H]2NC(=O)[C@H](Cc3ccccc3)NC(=O)[C@H](Cc3ccccc3)NC(=O)[C@H](CSSCCNC2=O)NC1=O`: in the assay on T-24 [1], the inhibition of growth at 0.5 µM came to 70%. In addition, the pIC50 in the assay with DU-145 was 6.74; in assay [4], 6.74; in the assay on LNCaP it was 6.57; with TCC-SUP it was 6.42; in the assay on PC-3, 6.22; with T-24 [2], 6.59. Further, the inhibition of growth at 5 µM in the assay on T-24 [3] was above 95%.

As usually defined, the pIC50 is the negative decadic logarithm of the IC50, by convention in mol/L. The low end stands for a large IC50, the high end for a small IC50.
